Experiments:
[1] = test system: HIV-1 in treatment naive patients; assay: Clinical study AI424-034, virological outcomes and resistance; assay type: in vivo, human; details: study 034
From the text: (§1) Study Population. Viral samples (baseline and on-treatment, where available) were obtained from patients who experienced virologic failure while enrolled in studies AI424-007/041 [12] (ATV+d4T and ddI), AI424-008/044 [13, 14] (ATV+d4T and 3TC) and AI424-034 [9] (ATV or EFV in combination with ZDV and 3TC). […] In general, virologic failure specimens were selected for further resistance evaluation only if they contained >1,000 copies/mL HIV-1 RNA and there was no indication that the specimen came from a patient at a time of transient non-adherence to study drug(s). […] For non-responders, samples from week 16 (or 24) were tested. Drug adherence was determined from pill counts of returned study medications at each scheduled visit.
(§2) ATV resistance was defined as ≧2-fold decrease in ATV susceptibility from baseline, a Fold Change (FC) of ≧2.5 (relative to the Nl4-3 reference strain), or evidence of an isoleucine (Ile) to leucine (Leu) change at amino acid residue 50 (I50L). Resistance levels for NFV and EFV were also defined as a FC reaching 2.5.

[2] = test system: clinical isolates containing an I50L substitution (and their baseline isolates); assay: PhenoSense phenotypic susceptibility of clinical isolates from ATV-treated patients who developed I50L; assay type: cell-based, HIV-1
From the text: as §1
(§3) Drug Susceptibility Assays. Clinical isolates were subjected to phenotypic (PhenoSense™) and genotypic (GeneSeq™) analysis by Virologic, Inc. as described elsewhere.

[3] = test system: clinical isolates containing a D30N substitution; assay: PhenoSense phenotypic susceptibility of clinical isolates containing D30N; assay type: cell-based, HIV-1; details: 75 D30N containing isolates, FIG. 3
Description: as §3
Comparative Studies of I50L and D30N Containing Viruses. […] Comparative studies were performed on the 18 phenotyped viruses containing an I50L and 75 clinical isolates containing a D30N substitution without evidence of cross-resistance (FC≧2.5) to other PIs.

[4] = test system: recombinant HIV-1 viruses (NL4-3, RF, LAI) in MT-2 cells; assay: MT-2 cell susceptibility assay of recombinant viruses; assay type: cell-based; details: all three viral strains, I50L or I50L/A71V introduced by site-directed mutagenesis
Description: Cells and Viruses. MT-2 cells, HIV-1 RF, HIV1-LAI, and the HIV-1 NL4-3 proviral clones were obtained through the AIDS Research and Reference Reagent Program, National Institutes of Health. MT-2 cells were cultured in RPMI 1640 medium supplemented with 10% fetal bovine serum, 2 mM L-glutamine, and 10 mM Hepes buffer. HIV-1 viruses were generated by transient transfection of the proviral DNA into Human Embryonic Kidney 293 cells using Lipofectamine reagents (Gibco BRL). The viruses were harvested 72 hr post-transfection, amplified in MT-2 cells, and titered in the same cells using a virus yield assay.
Recombinant HIV-1 Variants and Chimeric NL4-3 Proviral Clones. HIV-1 strains with defined substitutions in the protease gene were generated by QuikChange® site-directed mutagenesis as recommended by the manufacturer (Stratagene). Recombinant NL4-3 and LAI proviral clones containing the wild-type and mutant protease genes from RF and clinical isolates were constructed by replacing the SseI/ApaI fragment of pNL4-3 with the appropriate SseI/ApaI protease fragments.
Recombinant viruses (generated separately from those made for PhenoSense assays) were tested in an MT-2 cell susceptibility assay at Bristol Myers Squibb. MT-2 cells were infected with recombinant viruses at a multiplicity of infection (MOI) of 0.005 50% tissue culture infective doses (TCID50)/cell followed by incubation in the presence or absence of serially diluted protease inhibitors for 4 to 7 days. Virus yields were quantified using a RT assay as previously described. The results from at least four independent experiments were used to calculate the EC50.

[5] = test system: HIV-1 in treatment naive patients; assay: Clinical study AI424-007/041, virological outcomes and resistance; assay type: in vivo, human; details: study 007/041
From the text: as §1, §2

[6] = test system: HIV-1 in treatment naive patients; assay: Clinical study AI424-008/044, virological outcomes and resistance; assay type: in vivo, human; details: study 008/044
From the text: as §1, §2

Structure (SMILES)	Virologic Failures (%) [1]	Virologic Failures, number [1]	Susceptibility, Fold Change in EC50 relative to reference strain ([2]; Subject 076, Week 80)	Susceptibility, Fold Change in EC50 relative to reference strain ([2]; Subject 076, Week 92)	Susceptibility, Fold Change in EC50 relative to reference strain ([2]; Subject 100, Week 1.7)	Susceptibility, Fold Change in EC50 relative to reference strain ([2]; Subject 169, Week 0.1)	Susceptibility, Fold Change in EC50 relative to reference strain ([2]; Subject 169, Week 90)	Susceptibility, Fold Change in EC50 relative to reference strain ([2]; Subject 169, Week 102)	Subceptibility, Fold Change in EC50 relative to reference strain ([2]; Subject 169, Week 114)	Susceptibility, Fold Change in EC50 relative to reference strain ([2]; Subject 362, Week 0.1)	Susceptibility, Fold Change in EC50 relative to reference strain ([2]; Subject 362, Week 108)	percentage of baseline isolates exhibiting a FC≦0.4 ([2]; baseline isolates)	median increase in susceptibility from baseline ([2]; on emergence of I50L, n=4 to 15)	percentage of I50L isolates with susceptibility (FC) 0.4-fold or lower ([2]; relative to the reference strain)	median FC [3]	change in susceptibility [4]	Virologic Failures (%) [5]	Virologic Failures, number [5]	Virologic Failures (%) [6]	Virologic Failures, number [6]
O=C1Nc2ccc(Cl)cc2[C@@](C#CC2CC2)(C(F)(F)F)O1 [EFV, efavirenz]	17%	69																		
Cc1c(O)cccc1C(=O)N[C@@H](CSc1ccccc1)[C@H](O)CN1C[C@H]2CCCC[C@H]2C[C@H]1C(=O)NC(C)(C)C [NFV, nelfinavir]			0.4 Fold Change	0.6 Fold Change	2.1 Fold Change	1.0 Fold Change	0.5 Fold Change	0.5 Fold Change	0.7 Fold Change	2.3 Fold Change	1.1 Fold Change	0%	1.6 fold	33%	resistance	enhanced susceptibility	23%	18	30%	27

From patent publication US20050148523A1, “Method of treating HIV infection in atazanavir-resistant patients using a combination of atazanavir and another protease inhibitor” (priority 2003, published 2005)
